Laboratory results published in patent US9714247B2, “Multiple kinase pathway inhibitors” (Mannkind Corporation, priority 2012, dated 2017).
Like-named read-outs stand apart in the source and are kept apart here.

Assays:
[1] = system: DoHH2; experiment: CellTiter-Glo proliferation/viability assay; assay type: cell-based, human
[2] = system: Ramos; experiment: CellTiter-Glo proliferation/viability assay; assay type: cell-based, human; conditions: read-out: Ramos EC50
[3] = system: RBL-2H3 cells; experiment: Degranulation (β-hexosaminidase release) colorimetric assay; assay type: cell-based; conditions: Rattus norvegicus, RBL-2H3, IgE / DNP-BSA
From the text: Crosslinking of IgE receptors leads to induction of intracellular signal transduction pathways and degranulation of mast cells and basophils leading to the release of histamine, serotonin and cytokines that constitutes an allergic reaction. […] One of the factors secreted on induction of degranulation is β-hexosaminidase. A colorimetric assay using 4-nitrophenyl N-acetyl-3-D-glucosaminide (Sigma-Aldrich) as a substrate was used to estimate the amount of enzyme secreted upon degranulation. In brief, RBL-2H3 (ATCC # CRL 2256) cells were plated overnight in the presence of IgE (monoclonal anti-dinitrophenyl antibody from Sigma-Aldrich). The next day, cells were treated with compounds in cell culture media, washed and treated with DNP-BSA for 1 hour (Sigma-Aldrich) in Tyrodes's buffer to induce degranulation. The level of 3-hexosaminidase was analyzed in cell-free supernates and cell lysates and the amount of β-hexosaminidase released was calculated. EC50 values were generated using varying concentrations of inhibitors. […] Thus amino naphthyridinones can be used to inhibit immunologic functions such as degranulation.

[4] = molecular target: T1, Src (Homo sapiens (Human), UniProt P12931); conditions: read-out: Src IC50
[5] = molecular target: T2, Lyn (Homo sapiens (Human), UniProt P07948); experiment: biochemical
[6] = system: DoHH2; experiment: Apoptosis by flow cytometry (Annexin V / 7AAD); assay type: cell-based, human; conditions: Table 6; for Percent Apoptosis at 2 uM: DOHH2, 2 uM; for Percent Apoptosis at 5 uM: DOHH2, 5 uM
From the text: Activation of Tec family kinases including BTK, and/or Src kinase family members, regulates cell survival and cell death in normal B cells, lymphomas, and solid tumors. Apoptosis is a programmed cell death characterized by specific changes in cell morphology. […] Staurosporine was used as a positive control for apoptosis. […] Table 6 illustrates that several amino naphthyridinones induce significant apoptosis in DoHH2 cells.

[7] = system: PLCγ2 phosphorylation in Ramos cells; experiment: PLCγ2 phosphorylation by flow cytometry; assay type: cell-based, human; conditions: Homo sapiens, flow cytometry; for inhibition at 0.3 µM: anti-phospho PLCγ2 (Tyr759), read-out: pPLCγ % inhibition
Summary of the method: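 Ramos cells starved 18 h in 1% FBS, pretreated with inhibitor 2 h, then stimulated with anti-IgM (10 ug/ml final) plus 3.3 mM H2O2 for 2 min, then cross-linking F(ab) (10 ug/ml) plus H2O2 for 8 min. Fixed, permeabilized cells stained with PE anti-phospho-PLCγ2 (Tyr1217 or Tyr759), dead cells gated out; ED50 from geometric mean fluorescence over four inhibitor concentrations.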

[8] = system: phosphorylation of SFKs in Ramos cells; experiment: SFK phosphorylation (Tyr 416) by flow cytometry; assay type: cell-based, human; conditions: Homo sapiens, 0.3 uM, flow cytometry, SFK phosphorylated at Tyr 416, read-out: pSRC % inhibition
Experimental: Ramos cell lysates from stimulated and unstimulated cells were analyzed for the levels of phosphorylated SRC family members. As described in Example 82 (above), cells were pretreated for 2 hours with an amino naphthyridinones and then stimulated with anti-IgM antibody and H2O2, protein lysates were prepared, quantified and used for Western blotting. A commercially available antibody that detects Src phosphorylated at Tyr 416 (Cell Signalling) and may cross-react with other Src family members such as Lyn, Fyn, Lck, Yes and Hck when phosphorylated at equivalent sites was used for Western blot analysis. The molecular weights of SFK family members are quite similar (in the 55-60 kDa range) and different family members cannot be resolved by the conditions used for the Western blot. […] The procedure can be similarly adapted for flow cytometric analysis as with the PLC-γ2 assay in Example 82. Ramos cells were incubated with Compound 1 for 2 hrs in RPMI media with 5% FBS prior to stimulation stimulated with H2O2/anti-IgM/F(Ab) for 10 minutes. Cells were evaluated by FACS analysis using anti-pSRC antibody and FITC-conjugated goat anti-rabbit secondary antibody following overnight storage at 4° C. in BD perm/wash buffer.
Ramos cells were prepared for flow cytometry analysis as described in example 82, and stained with a commercially available antibody that detects SFK phosphorylated at Tyr 416, followed by Alexa Fluor 488 conjugated secondary antibody. […] Thus amino naphthyridinones are useful in the inhibition of the phosphorylation of SFKs.

[9] = molecular target: T2, Lyn; conditions: read-out: Lyn IC50
[10] = system: DoHH2 cells; conditions: treated 24 hours
[11] = molecular target: BTK (Homo sapiens (Human), UniProt Q06187)
[12] = molecular target: T1, Src; experiment: biochemical
[13] = Homo sapiens, DOHH-2, 48 hrs, read-out: DoHH2 EC50
[14] = Homo sapiens, DOHH-2, Table 4, DoHH2 cells, read-out: EC50 (Proliferation)

T2 sequence (P07948 whole entry): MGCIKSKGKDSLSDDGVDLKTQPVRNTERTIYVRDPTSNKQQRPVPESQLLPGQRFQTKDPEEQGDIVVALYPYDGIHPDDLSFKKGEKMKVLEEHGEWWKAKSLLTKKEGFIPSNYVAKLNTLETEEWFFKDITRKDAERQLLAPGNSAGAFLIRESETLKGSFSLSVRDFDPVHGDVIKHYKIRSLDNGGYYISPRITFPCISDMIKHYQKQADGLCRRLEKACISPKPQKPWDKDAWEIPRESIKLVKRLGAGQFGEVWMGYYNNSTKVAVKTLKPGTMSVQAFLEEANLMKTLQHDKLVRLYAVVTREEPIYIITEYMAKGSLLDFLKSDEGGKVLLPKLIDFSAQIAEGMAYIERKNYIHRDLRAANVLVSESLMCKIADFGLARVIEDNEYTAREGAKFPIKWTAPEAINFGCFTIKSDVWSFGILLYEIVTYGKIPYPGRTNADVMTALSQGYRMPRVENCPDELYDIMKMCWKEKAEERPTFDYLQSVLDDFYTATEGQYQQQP
Sequence of BTK (Q06187 whole entry): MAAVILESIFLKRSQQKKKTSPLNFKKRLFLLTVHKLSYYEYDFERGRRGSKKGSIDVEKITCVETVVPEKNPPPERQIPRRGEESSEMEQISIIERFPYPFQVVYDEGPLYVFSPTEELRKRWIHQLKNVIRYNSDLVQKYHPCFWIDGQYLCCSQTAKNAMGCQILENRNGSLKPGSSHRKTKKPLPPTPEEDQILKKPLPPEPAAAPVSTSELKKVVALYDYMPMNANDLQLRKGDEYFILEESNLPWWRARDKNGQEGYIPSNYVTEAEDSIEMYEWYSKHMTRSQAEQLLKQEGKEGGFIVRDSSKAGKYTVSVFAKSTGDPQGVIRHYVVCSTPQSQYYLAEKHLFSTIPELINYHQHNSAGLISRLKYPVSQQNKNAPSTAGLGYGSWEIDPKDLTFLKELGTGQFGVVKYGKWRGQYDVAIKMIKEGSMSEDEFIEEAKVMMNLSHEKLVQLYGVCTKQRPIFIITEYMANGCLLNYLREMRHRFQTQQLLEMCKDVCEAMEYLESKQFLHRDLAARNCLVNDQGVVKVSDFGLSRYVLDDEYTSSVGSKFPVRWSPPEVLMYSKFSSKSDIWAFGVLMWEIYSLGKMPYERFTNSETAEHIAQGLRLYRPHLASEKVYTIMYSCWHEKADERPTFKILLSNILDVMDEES
T1 sequence (P12931 whole entry, looked up): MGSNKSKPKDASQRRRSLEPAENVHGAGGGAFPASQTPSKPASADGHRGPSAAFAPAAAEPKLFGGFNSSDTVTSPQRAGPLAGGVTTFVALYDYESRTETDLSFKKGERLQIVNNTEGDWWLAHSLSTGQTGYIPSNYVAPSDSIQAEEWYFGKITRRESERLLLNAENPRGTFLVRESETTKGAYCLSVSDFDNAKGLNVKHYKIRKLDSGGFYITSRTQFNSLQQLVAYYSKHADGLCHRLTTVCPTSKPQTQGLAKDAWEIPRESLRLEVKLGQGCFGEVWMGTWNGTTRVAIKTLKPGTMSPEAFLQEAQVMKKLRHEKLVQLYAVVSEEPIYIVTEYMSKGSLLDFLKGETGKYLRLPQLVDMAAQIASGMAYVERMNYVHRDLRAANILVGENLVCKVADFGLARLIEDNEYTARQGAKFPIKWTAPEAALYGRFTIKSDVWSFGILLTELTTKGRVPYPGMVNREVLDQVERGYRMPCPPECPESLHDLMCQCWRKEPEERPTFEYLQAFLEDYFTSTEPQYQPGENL

Structure (SMILES)	EC50 ([2]; 48 hrs) [µM]	EC50 [3] [µM]	IC50 [4] [µM]	IC50 ([5]; Lyn IC50) [µM]	EC50 ([2]; Homo sapiens, Ramos, 48 hrs) [µM]	IC50 [9] [µM]	IC50 [5] [µM]	IC50 [11] [µM]	IC50 ([11]; read-out: BTK IC50) [µM]	EC50 ([2]; Homo sapiens, Ramos, 48 h) [µM]	IC50 [12] [µM]	EC50 ([7]; anti-phospho PLCγ2 (Tyr1217), four concentrations, read-out: Inhibition of phosphorylation of PLC-γ2 EC50) [µM]	EC50 ([1]; 48 hrs, read-out: DoHH2 EC50) [µM]	EC50 [1, 13] [µM]	EC50 [1, 14] [µM]	Percent Apoptosis at 2 uM [6] [%]	Percent Apoptosis at 5 uM [6] [%]	inhibition at 0.3 µM [7] [%]	inhibition at 0.3 µM [8] [%]	Effect on Cell Cycle [10]
CCN(CC)CCOc1ccc(Nc2cc3c(cn2)cc(-c2ccccc2)c(=O)n3C2CCN(C)CC2)nc1 [Compound 16, 7-((5-(2-(diethylamino)ethoxy)pyridin-2-yl)amino)-1-(1-methylpiperidin-4-yl)-3-phenyl-1,6-naphthyridin-2(1H)-one]	–	–	< 0.1	–	1 to 10	0.1 to 1	0.1 to 1	0.1 to 1	0.1 to 1	–	–	–	–	< 1	< 1	32.57	58.99	46	-1	G1 Arrest
CCN(CC)CCOc1ccc(Nc2cc3c(cn2)cc(-c2ccccc2)c(=O)n3C(C)C)nc1 [Compound 22, 7-(5-(2-(diethylamino)ethoxy)pyridin-2-ylamino)-1-isopropyl-3-phenyl-1,6-naphthyridin-2(1H)-one]	–	–	–	0.1 to 1	–	–	–	–	< 0.1	1 to 10	0.1 to 1	–	–	< 1	< 1	21.68	25.8	–	–	G1 Arrest
CCN(CC)CCOc1ccc(Nc2cc3c(cn2)cc(-c2ccccc2)c(=O)n3C2CCC2)nc1 [Compound 25, 1-cyclobutyl-7-(5-(2-(diethylamino)ethoxy)pyridin-2-ylamino)-3-phenyl-1,6-naphthyridin-2(1H)-one]	–	–	–	–	–	–	1 to 5	–	–	1 to 10	1 to 5	0.28	–	< 1	< 1	26.94	20.29	61	26	G1 Arrest
CCN(CC)CCOc1ccc(Nc2cc3c(cn2)cc(-c2ccccc2)c(=O)n3C2CC2)nc1 [Compound 27, 1-cyclopropyl-7-(5-(2-(diethylamino)ethoxy)pyridin-2-ylamino)-3-phenyl-1,6-naphthyridin-2(1H)-one]	–	–	–	–	1 to 10	–	0.1 to 1	–	< 0.1	–	0.1 to 1	–	–	< 1	< 1	37.05	54.19	–	–	G1 Arrest
CCn1c(=O)c(-c2c(F)cccc2F)cc2cnc(Nc3ccc(F)cn3)cc21 [Compound 75, 3-(2,6-difluorophenyl)-1-ethyl-7-((5-fluoropyridin-2-yl)amino)-1,6-naphthyri-din-2 (1H)-one]	–	–	–	–	–	< 0.1	–	–	< 0.1	1 to 10	0.1 to 1	–	–	< 1	< 1	35.66	39.47	–	–	G1 Arrest

Further lines, with some results ahead:

EC50 ([2]; 48 hrs) [µM]	EC50 [3] [µM]	IC50 [4] [µM]	IC50 ([5]; Lyn IC50) [µM]	EC50 ([2]; Homo sapiens, Ramos, 48 hrs) [µM]	IC50 [9] [µM]	IC50 [5] [µM]	IC50 [11] [µM]	IC50 ([11]; read-out: BTK IC50) [µM]	EC50 ([2]; Homo sapiens, Ramos, 48 h) [µM]	IC50 [12] [µM]	EC50 ([7]; anti-phospho PLCγ2 (Tyr1217), four concentrations, read-out: Inhibition of phosphorylation of PLC-γ2 EC50) [µM]	Structure (SMILES)	EC50 ([1]; 48 hrs, read-out: DoHH2 EC50) [µM]	EC50 [1, 13] [µM]	EC50 [1, 14] [µM]	Percent Apoptosis at 2 uM [6] [%]	Percent Apoptosis at 5 uM [6] [%]	inhibition at 0.3 µM [7] [%]	inhibition at 0.3 µM [8] [%]	Effect on Cell Cycle [10]
1 to 10	> 5	< 0.1	< 0.1	–	–	–	–	–	–	–	–	O=c1c(-c2c(F)cccc2F)cc2cnc(Nc3ccc(F)cn3)cc2n1C1CCOC1 (single isomer, unassigned) [Compound 142, (R or S)-3-(2,6-difluorophenyl)-7-((5-fluoropyridin-2-yl)amino)-1-(tetrahydrofuran-3-yl)-1,6-naphthyridin-2(1H)-one]	< 1	–	–	–	–	–	–	–
–	5.49	< 0.1	–	> 10	< 0.1	–	–	< 0.1	–	–	–	O=c1c(-c2c(F)cccc2F)cc2cnc(Nc3ccc(F)cn3)cc2n1CCN1CCOCC1 [Compound 133, 3-(2,6-difluorophenyl)-7-((5-fluoropyridin-2-yl)amino)-1-(2-morpholinoethyl)-1,6-naphthyridin-2(1H)-one]	–	< 1	–	–	–	–	–	–
–	> 5	–	0.1 to 1	–	–	–	–	–	> 10	0.1 to 1	–	CN1CC[C@H](n2c(=O)c(-c3c(F)cccc3F)cc3cnc(Nc4ccc(F)cn4)cc32)C1 [Compound 150, (S)-3-(2,6-difluorophenyl)-7-((5-fluoropyridin-2-yl)amino)-1-(1-methylpyrrolidin-3-yl)-1,6-naphthyridin-2(1H)-one]	–	1 to 10	–	–	–	–	–	–
